Patent US20040192905A1, “Polymerizable monomers and process of preparation thereof” (priority 2003, published 2004)

What was measured:
lysozyme [1] = molecular target: T1, lysozyme (Gallus gallus, UniProt P00698); assay: Estimation of relative inhibition of lysozyme (Micrococcus lysodeikticus substrate, absorbance at 450 nm); format: biochemical; details: for 1max: ligand concentration at Imax; for Imax: maximum relative inhibition of lysozyme; for IC50: phosphate buffer pH 6.2, 20 C, Micrococcus lysodeikticus substrate, read-out: I50
Protocol: This example describes the estimation of inhibition of lysozyme by monomers Micrococcus lysodeikticus is a substrate for the enzyme lysozyme. Relative binding of monomers and monomers linked to NAG through the spacer arm was estimated by using a procedure reported by Neuberger and Wilson (1967).
1 5% w/v stock solutions of monomeric ligands was prepared in […] phosphate buffer pH 6.2 containing 0.01 54 m sodium chloride and 0.008 M sodium azide. One milliliter of stock solution containing different ligand concentration was mixed with 1.6 ml of 78 Jig/ml of Micrococcus lysodeikticus in a 3-ml capacity glass cuvette. The mixture was incubated for 5 minutes at 20 0 C. To this mixture 0.1 ml of lysozyme (27 μg/ml) was added and mixed thoroughly. The relative absorbance at 450 nm (Δ450) was recorded for 30 seconds. A blank reading without the ligand was noted and the change in the absorbance per second was calculated. Then relative inhibition was calculated

lysozyme [2] = molecular target: T1, lysozyme; assay: Estimation of binding constant (Kb) by fluorescence spectrophotometric method; details: relative to NAG
Protocol: Estimation of binding constant (Kb) of monomers containing NAG by fluorescence spectrophotometric method and the enhancement resulting from conjugation with monomers and monomer containing spacer.
Fluorescence spectra of lysozyme were recorded on a Perkin Elmer LS-50 B luminescence spectrophotometer. Excitation frequency was 285 nm, Solutions of lysozyme and N-Acetyl Glucosamine were prepared in 0.066 M phosphate buffer pH 6.2, containing 0.0154 M sodium chloride and 0.008 M sodium azide. 0 1 milliliter of lysozyme 80 μg/ml was mixed with solution containing different ligand concentration in a 2 ml capacity 10 mm square quartz cells maintained at 18 0 C.
Phosphate buffer was added to make the volume to 2 ml. The fluorescence intensities of the solutions were measured, relative to the solutions containing enzymes and buffer mixtures of the identical concentrations reference. […]

T1 sequence (P00698 19-147): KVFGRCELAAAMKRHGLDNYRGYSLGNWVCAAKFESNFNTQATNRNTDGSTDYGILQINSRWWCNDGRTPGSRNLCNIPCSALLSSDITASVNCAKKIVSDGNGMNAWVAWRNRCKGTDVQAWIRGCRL

| 1max (lysozyme [1]) | Imax (lysozyme [1]) | IC50 (lysozyme [1]) | increase in binding constant compared to N-Acetyl Glucosamine (lysozyme [2]) | Molecule |
| --- | --- | --- | --- | --- |
| 92.5 mM | 55.29 | 74 mM |  | CC(=O)N[C@H]1C(O)O[C@H](CO)[C@@H](O)[C@@H]1O (stereo partly shown) [NAG, N-Acetyl Glucosamine, reference compound] |
| 14.81 mM | 50.00 | 14.8 mM | 74 times | C=CC(=O)OC[C@H]1OC(O)[C@H](NC(C)=O)[C@@H](O)[C@@H]1O (stereo partly shown) [Ac. NAG, Acryloyl N-Acetyl Glacosamine] |

| Molecule | 1max (lysozyme [1]) | Imax (lysozyme [1]) | IC50 (lysozyme [1]) | increase in binding constant compared to N-Acetyl Glucosamine (lysozyme [2]) |
| --- | --- | --- | --- | --- |
| Acryloyl 6-Amino Caproic Acid N-Acetyl Glucosamine [Ac 6ACA.NAG] | 0.036 mM | 52.5 | 0.035 mM |  |
